{
  "source": "paper PMC7136958",
  "about": "“Targeting the pregnane X receptor using microbial metabolite mimicry” (EMBO Molecular Medicine, 2020)",
  "key": {"NF-κB": {"tested_on": "NF-κB", "assay": "TNF-α-induced NF-κB reporter assay in LS180 cells with or without PXR co-transfection", "format": "cell-based, human", "conditions": "NFkB+PXR transfected LS180 cells, 13th pass, EXP2", "description": "NF‐κB reporter assays were performed using LS180 cells. […] Thereafter, cells were lysed, and Nano luciferase activity was measured using a Tecan Infinite M200 Pro plate reader (Schoeller Instruments, Czech Republic)."}, "S. typhimurium 14038 [1]": {"tested_on": "S. typhimurium 14038", "assay": "Salmonella invasion (gentamicin protection assay) in Caco-2 monolayers", "format": "cell-based, Salmonella typhimurium", "conditions": "for Salmonella CFU/ml: Caco-2 cells, triplicate", "description": "(§1) FKK compounds were tested for their ability to prevent Salmonella invasion in vitro in non‐inflamed and inflamed cell cultures. Overnight cultures of S. typhimurium 14038 were diluted to OD600 0.01 and injected into with HIOs or immersed over Caco‐2 monolayers for 1 h at 37°C. The invasive ability of Salmonella was assessed using the gentamicin protection assay (Gagnon et al, 2013). Bacterial adhesion scenarios to the Caco‐2 surface were set up as described above. Non‐adhered bacteria were removed by washing twice in PBS, followed by incubation with 1 ml gentamicin (150 μg/ml in DMEM) for 1 h at 37°C to kill the adhered extracellular bacteria. Dead bacteria were removed by washing twice in PBS, followed by incubation with 500 μl 0.1% Triton X‐100 for 15 min at 37°C to lyse the HIOs and Caco‐2, and release the intracellular (invaded) bacteria. Serial fold dilutions and plating were then employed to determine CFU/ml. We normalized to total protein using Bradford assay."}, "S. typhimurium 14038 [2]": {"tested_on": "S. typhimurium 14038", "assay": "Salmonella invasion in iPSC-derived human intestinal organoids", "format": "cell-based, Salmonella typhimurium", "conditions": "for Salmonella CFU/ml: HIO, triplicate", "description": "as §1"}, "hPXR": {"biological_target": "T1, hPXR (Homo sapiens, UniProt O75469)", "T1 sequence (O75469 111-434 limits assumed)": "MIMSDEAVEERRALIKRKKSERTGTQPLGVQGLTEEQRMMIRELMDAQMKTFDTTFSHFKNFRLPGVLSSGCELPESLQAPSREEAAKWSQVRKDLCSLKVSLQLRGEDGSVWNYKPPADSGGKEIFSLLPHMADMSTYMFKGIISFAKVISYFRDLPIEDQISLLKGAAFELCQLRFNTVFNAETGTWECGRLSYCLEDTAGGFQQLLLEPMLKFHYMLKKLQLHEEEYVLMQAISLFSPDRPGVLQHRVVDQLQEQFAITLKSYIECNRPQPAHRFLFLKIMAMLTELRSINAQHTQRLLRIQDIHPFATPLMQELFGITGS", "assay": "hPXR TR-FRET competitive binding assay (LanthaScreen)", "conditions": "for 520/495 TR-FRET ratio: replicate wells; for TR-FRET signal (Fig 1e): each column a repeat", "procedure": "All PXR‐binding assays were performed as two independent experiments, each with a minimum of four replicates. Final IC50 was obtained by processing the data with GraphPad Prism 6 using standard curve interpolation (sigmoidal, 4PL, variable slope)."}, "[3]": {"tested_on": "PXR occupancy of CYP3A4 and MDR1 promoter", "assay": "Chromatin immunoprecipitation (ChIP) in PXR-transfected LS174T cells", "conditions": "10 μM", "procedure": "LS174T cells were transfected with pSG5‐PXR (2 μg/plate/1 × 10^7 cells). […] Briefly, cells were chemically cross‐linked with formaldehyde in culture media for 15 min at room temperature. […] Cells were rinsed twice with cold PBS (phosphate‐buffered saline) (pH 7.5) and scraped in PBS supplemented with PIC (protease inhibitor cocktail).\nCell pellets were collected and immediately resuspended in immunoprecipitation (IP) buffer (150 mM NaCl (sodium chloride), 50 mM Tris–HCl at pH 7.5, 5 mM EDTA (ethylenediaminetetraacetic acid), 0.5% NP‐40, 1% Triton X‐100). The nuclei were centrifuged at 12,000 × g for 1 min and resuspended in fresh IP buffer. Chromatin was sheared by sonication to an average size of 0.2‐0.9 kb. Lysates were cleared by centrifugation at 12,000 × g for 10 min. […] 10% (wt/vol) Chelex 100 was added to the beads followed by boiling of the suspension and centrifugation at 12,000 × g for 1 min to obtain chromatin.\nPurified chromatin DNA was used to perform RT–qPCR. […] Data were analyzed using SDS 2.2.1 program (ABI Biotechnology)."}, "[4]": {"conditions": "compound 25µm, no cytokines, 6 hr"}, "[5]": {"conditions": "cytokines + compound 25µm, 6 hr"}},
  "note": "Several values for one entry are separate records, joined by “and”; a condition that tells them apart may be missing. Equal entries are not always repeated. Marks after values point to notes of the source that are not given here.",
  "data": [
    {"molecule": "C#CCC(O)(c1ccncc1)c1cc2ccccc2n1S(=O)(=O)c1ccccc1", "note": "(stereo not drawn) [FKK6]", "values": [
      {"measurement": "NFkB reporter luminescence, aver", "setting": "NF-κB; 1 uM + TNFa 5 ng/ml", "value": 38521.5},
      {"measurement": "NFkB reporter, % max", "setting": "NF-κB; 1 uM + TNFa 5 ng/ml", "value": 77.0, "unit": "%"},
      {"measurement": "NFkB reporter luminescence, aver", "setting": "NF-κB; 10 uM + TNFa 5 ng/ml", "value": 24979.3},
      {"measurement": "NFkB reporter, % max", "setting": "NF-κB; 10 uM + TNFa 5 ng/ml", "value": 49.9, "unit": "%"},
      {"measurement": "NFkB reporter luminescence, aver", "setting": "NF-κB; 25 uM + TNFa 5 ng/ml", "value": 26644.5},
      {"measurement": "NFkB reporter, % max", "setting": "NF-κB; 25 uM + TNFa 5 ng/ml", "value": 53.3, "unit": "%"},
      {"measurement": "cytokine-induced salmonella invasion", "setting": "S. typhimurium 14038 [1]; 10 and 25 μM, vs cytokines only", "value": "significantly decreased"},
      {"measurement": "Salmonella CFU/ml", "setting": "S. typhimurium 14038 [1]; compound 10µm, no cytokines, 6 hr", "value": "3008 CFU/ml and 3000 CFU/ml and 1800 CFU/ml"},
      {"measurement": "Salmonella CFU/ml", "setting": "S. typhimurium 14038 [1]; compound 10µm, no cytokines, 12 hr", "value": "1840 CFU/ml and 3520 CFU/ml and 2960 CFU/ml"},
      {"measurement": "Salmonella CFU/ml", "setting": "S. typhimurium 14038 [1]; [4]", "value": "2076 CFU/ml and 2290 CFU/ml and 2980 CFU/ml"},
      {"measurement": "Salmonella CFU/ml", "setting": "S. typhimurium 14038 [1]; compound 25µm, no cytokines, 12 hr", "value": "1360 CFU/ml and 2480 CFU/ml and 2320 CFU/ml"},
      {"measurement": "Salmonella CFU/ml", "setting": "S. typhimurium 14038 [1]; cytokines + compound 10µm, 6 hr", "value": "2276 CFU/ml and 2820 CFU/ml and 1500 CFU/ml"},
      {"measurement": "Salmonella CFU/ml", "setting": "S. typhimurium 14038 [1]; [5]", "value": "1940 CFU/ml and 1870 CFU/ml and 1600 CFU/ml"},
      {"measurement": "Salmonella CFU/ml", "setting": "S. typhimurium 14038 [1]; cytokines + compound 25µm, 12 hr", "value": "2520 CFU/ml and 1360 CFU/ml"},
      {"measurement": "salmonella invasion, compound alone", "setting": "S. typhimurium 14038 [1]; no cytokines", "value": "No significant effect"},
      {"measurement": "salmonella invasion vs cytokines alone", "setting": "S. typhimurium 14038 [2]; 2, 4, 6, 12 h", "value": "significantly reduced"},
      {"measurement": "basal salmonella invasion", "setting": "S. typhimurium 14038 [2]; 10 and 25 μM", "value": "no significant effect"},
      {"measurement": "Salmonella CFU/ml", "setting": "S. typhimurium 14038 [2]; compound 10µm, no cytokines, 4 hr", "value": "370 CFU/ml and 296 CFU/ml and 591 CFU/ml"},
      {"measurement": "Salmonella CFU/ml", "setting": "S. typhimurium 14038 [2]; [4]", "value": "277 CFU/ml and 280 CFU/ml and 238 CFU/ml"},
      {"measurement": "Salmonella CFU/ml", "setting": "S. typhimurium 14038 [2]; cytokines + compound 10µm, 2 hr", "value": "234 CFU/ml and 133 CFU/ml and 134 CFU/ml"},
      {"measurement": "Salmonella CFU/ml", "setting": "S. typhimurium 14038 [2]; cytokines + compound 10µm, 12 hr", "value": "362 CFU/ml and 381 CFU/ml and 340 CFU/ml"},
      {"measurement": "Salmonella CFU/ml", "setting": "S. typhimurium 14038 [2]; cytokines + compound 25µm, 2 hr", "value": "193 CFU/ml and 132 CFU/ml and 164 CFU/ml"},
      {"measurement": "Salmonella CFU/ml", "setting": "S. typhimurium 14038 [2]; cytokines + compound 25µm, 4 hr", "value": "200 CFU/ml and 140 CFU/ml and 164 CFU/ml"},
      {"measurement": "Salmonella CFU/ml", "setting": "S. typhimurium 14038 [2]; [5]", "value": "189 CFU/ml and 151 CFU/ml and 140 CFU/ml"},
      {"measurement": "520/495 TR-FRET ratio", "setting": "hPXR; 0.001 uM", "value": "0.4136 and 0.4057 and 0.5035 and 0.4539"},
      {"measurement": "520/495 TR-FRET ratio", "setting": "hPXR; 0.005 uM", "value": "0.6293 and 0.6196 and 0.5845 and 0.6237"},
      {"measurement": "520/495 TR-FRET ratio", "setting": "hPXR; 0.01 uM", "value": "0.6566 and 0.5913 and 0.6411 and 0.6166"},
      {"measurement": "520/495 TR-FRET ratio", "setting": "hPXR; 0.05 uM", "value": "0.6583 and 0.5743 and 0.6162 and 0.6466"},
      {"measurement": "520/495 TR-FRET ratio", "setting": "hPXR; 0.1 uM", "value": "0.7390 and 0.6524 and 0.6459 and 0.6637"},
      {"measurement": "520/495 TR-FRET ratio", "setting": "hPXR; 0.5 uM", "value": "0.5359 and 0.4958 and 0.5519 and 0.5445"},
      {"measurement": "520/495 TR-FRET ratio", "setting": "hPXR; 1 uM", "value": "0.5035 and 0.4918 and 0.5332 and 0.5717"},
      {"measurement": "520/495 TR-FRET ratio", "setting": "hPXR; 5 uM", "value": "0.3896 and 0.3581 and 0.3234 and 0.3736"},
      {"measurement": "520/495 TR-FRET ratio", "setting": "hPXR; 10 uM", "value": "0.2832 and 0.3381 and 0.2857 and 0.3170"},
      {"measurement": "520/495 TR-FRET ratio", "setting": "hPXR; 25 uM", "value": "0.3206 and 0.2975 and 0.3225 and 0.3589"},
      {"measurement": "TR-FRET signal (Fig 1e)", "setting": "hPXR; Drug Conc 0,25 uM", "value": "0.6324 and 0.6211 and 0.6238 and 0.5836"},
      {"measurement": "TR-FRET signal (Fig 1e)", "setting": "hPXR; Drug Conc 1 nM", "value": "0.4136* and 0.4057* and 0.5035* and 0.4539*"},
      {"measurement": "TR-FRET signal (Fig 1e)", "setting": "hPXR; Drug Conc 5 nM", "value": "0.6293 and 0.6196 and 0.5845 and 0.6237"},
      {"measurement": "TR-FRET signal (Fig 1e)", "setting": "hPXR; Drug Conc 10 nM", "value": "0.6566 and 0.5913 and 0.6411 and 0.6166"},
      {"measurement": "TR-FRET signal (Fig 1e)", "setting": "hPXR; Drug Conc 50 nM", "value": "0.6583 and 0.5743 and 0.6162 and 0.6466"},
      {"measurement": "TR-FRET signal (Fig 1e)", "setting": "hPXR; Drug Conc 10 uM", "value": "0.2832 and 0.3381 and 0.2857 and 0.317"},
      {"measurement": "TR-FRET signal (Fig 1e)", "setting": "hPXR; Drug Conc 25 uM", "value": "0.3206 and 0.2975 and 0.3225 and 0.3589"},
      {"measurement": "PXR occupancy of proximal CYP3A4 and MDR1 promoter (semi-quantitative ChIP)", "setting": "[3]", "value": "augmented PXR occupancy"}
    ]}
  ]
}
